Read-outs that look alike come from different tables or passages of the source.
What was measured:
NT2 cells = assay: Oxidative stress induced APP processing in NT2 cells; type: cell-based; conditions: for APP processing as assessed by Aβ1-42 production: FIG. 17
Source text: Broadband light reverses oxidative stress induced APP processing to Aβ1-42. […] Broad band light (7.5 Joules total dose) reversed the oxidative stress affects back to control levels (FIG. 17).
Broadband light reverses oxidative stress induced APP processing to Aβ1-40. […] Broad band light (7.5 Joules total dose) reversed the oxidative stress affects back to control levels (FIG. 18).

mitochondrial Cco = target: T1, mitochondrial Cco (Mus musculus, UniProt P00397); assay: Cco/NO activity (nitrite-dependent NO synthesis) in cerebrum mitochondria, NO electrode; type: biochemical; conditions: hypoxic conditions, ascorbate/TMPD as electron donor pair, cerebrum mitochondria of 7-12 day old mice
T1 construct: These experiments used mitochondria isolated from the cerebrum of 7-12 day old mice; from tissue; host or cells: mitochondria from mouse cerebrum (7-12 day old mice)
Source text: We have studied Cco/NO activity in both human endothelial cells and mouse brain nervous tissue. All of the assays for Cco/NO activity were done in a closed chamber, as described elsewhere (Castello et al. 2006, Cell Metabolism 3, 277-287). Cells or mitochondria were allowed to respire and consume oxygen all of the oxygen in the chamber before the addition of nitrite, which initiated the reaction.
Results with mouse nerve cells. These experiments used mitochondria isolated from the cerebrum of 7-12 day old mice. Using the same assay we used for endothelial cell mitochondria, we assayed Cco/NO activity under hypoxic conditions with ascorbate/TMPD as an electron donor pair. […] To confirm that we had measured NO synthesis we added PTIO, an NO scavenger.

yeast cells = conditions: 1 mM nitrite, light 3 doses of 6.4 J/cm^2
Source text: The effects of broad spectrum light on the expression of the nuclear COX genes for Cco and the overall level of cellular respiration were examined. Because cytochrome c oxidase is a major regulator of respiration and because the nuclear genes (COX) for cytochrome c oxidase are highly regulated by a variety of environmental factors and function to regulate the overall activity of Cco, their level of expression provides a useful measure for the long-term effects of light on Cco. Similarly, the rate of respiration per se provides a direct measure of the effects of light on the entire respiratory chain.
Yeast cells were grown in liquid media for three hours, which is equivalent to the time it takes for one cell division. […]
Light from a Broadband 50 watt Xenon/Halogen Floodlight was administered at the beginning of each hour for a total of 3 doses, each at 6.4 J/cm^2 (105 mW/cm^2). After 3 hours, cells were harvested and analyzed for measurement of gene expression (by quantitiative PCR), or respiration (by polarographic oxygen consumption). qPCR was performed with primers designed for COX of Cco subunits COX4, COX5a, COX5b, COX6, and COX8. Each sample was run in duplicate and gene expression was quantified by normalizing to PMAI, a yeast gene that is expressed at constant levels, irrespective of the environment in which cells are grown.

Q: Which “APP processing as assessed by Aβ1-42 production” value (NT2 cells) does the source give for `OO` [H2O2] here?
A: dramatic increases

Q: `CCCCCC(O)/C=C/C=O` (stereo not drawn) [FINE] was tested. Which “APP processing as assessed by Aβ1-42 production” value (NT2 cells) did it give?
A: dramatic increases

Q: What about the “APP processing as assessed by Aβ1-40 production” value (NT2 cells; FIG. 18) of the same molecule?
A: dramatic increases

Q: `CC1(C)N([O])C(c2ccccc2)=[N+]([O-])C1(C)C` [PTIO] was tested. Which “Removal of the NO produced by mitochondrial Cco (NO scavenger)” value (mitochondrial Cco) did it give?
A: completely removes the NO produced

Q: Which “Oxygen Consumption” value (yeast cells; Hypoxia (1% O2)) does the source give for `O=NO` [+Nitrite, nitrite] here?
A: 14.27 ± 0.26 nmol/min/mg cells

Q: And the “Oxygen Consumption” value (yeast cells; Normoxia)?
A: 15.21 ± 0.47 nmol/min/mg cells

From US20160008627A1, “METHODS AND DEVICES FOR VISIBLE LIGHT MODULATION OF MITOCHONDRIAL FUNCTION IN HYPOXIA AND DISEASE” (Clarimedix Inc., priority 2008, published 2016)
